Key:
[1] = target: T1, cloned human serotonin 5-HT1A receptor (Homo sapiens, UniProt P08908); experiment: R-SAT 5-HT1A receptor activity (agonist/antagonist); type: cell-based; conditions: antagonist activity against 2 μM 5-HT, NIH 3T3 cells, read-out: Calculated IC50 at 5-HT1A receptor
T1 construct: host or cells: NIH 3T3 cells
T1 sequence (P08908 1-422): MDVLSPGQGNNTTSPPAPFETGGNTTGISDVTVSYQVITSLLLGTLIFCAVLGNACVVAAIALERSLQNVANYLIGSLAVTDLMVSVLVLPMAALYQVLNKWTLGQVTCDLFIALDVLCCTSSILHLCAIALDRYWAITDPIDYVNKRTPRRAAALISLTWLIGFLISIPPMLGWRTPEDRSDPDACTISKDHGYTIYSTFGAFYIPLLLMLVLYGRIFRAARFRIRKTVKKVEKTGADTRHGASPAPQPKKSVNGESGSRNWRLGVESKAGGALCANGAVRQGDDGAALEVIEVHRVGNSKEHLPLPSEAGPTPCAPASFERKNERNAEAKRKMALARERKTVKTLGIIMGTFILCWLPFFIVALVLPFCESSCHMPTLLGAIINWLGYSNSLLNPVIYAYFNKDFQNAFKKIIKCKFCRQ
Description: The assay involves co-expression of a marker enzyme, β-galactosidase, with the serotonin receptor of interest. Ligands stimulate proliferation of cells that express the receptor and, therefore, the marker. Ligand-induced effects can be determined by assay of the marker.
NIH 3T3 cells are incubated, plated, and then transfected using human 5-HT1A serotonin receptors, pSV-β-galactosidase, and salmon sperm DNA. The medium is changed one day later, and after 2 days, aliquots of the trypsinized cells are placed in wells of a 96 well plate. After five days in culture in the presence of the ligands, the levels of β-galactosidase are measured. The cells are then rinsed and incubated with the substrate, […] β-D-galactopyranoside.
Data from antagonist inhibition of the compounds are fit to the equation:
Response Max Response +(Min Response)/1+(Ligand Conc/[…])

[2] = target: T2, 5-HT3 receptor subtypes derived from N1E-115 cells (Mus musculus, UniProt P23979); experiment: 5-HT3 receptor radioligand binding (Cerep); conditions: IC50 for binding to 5-HT3 sites, inhibition of specific radioligand binding
T2 construct: host or cells: N1E-115 cells
T2 sequence (P23979 24-489): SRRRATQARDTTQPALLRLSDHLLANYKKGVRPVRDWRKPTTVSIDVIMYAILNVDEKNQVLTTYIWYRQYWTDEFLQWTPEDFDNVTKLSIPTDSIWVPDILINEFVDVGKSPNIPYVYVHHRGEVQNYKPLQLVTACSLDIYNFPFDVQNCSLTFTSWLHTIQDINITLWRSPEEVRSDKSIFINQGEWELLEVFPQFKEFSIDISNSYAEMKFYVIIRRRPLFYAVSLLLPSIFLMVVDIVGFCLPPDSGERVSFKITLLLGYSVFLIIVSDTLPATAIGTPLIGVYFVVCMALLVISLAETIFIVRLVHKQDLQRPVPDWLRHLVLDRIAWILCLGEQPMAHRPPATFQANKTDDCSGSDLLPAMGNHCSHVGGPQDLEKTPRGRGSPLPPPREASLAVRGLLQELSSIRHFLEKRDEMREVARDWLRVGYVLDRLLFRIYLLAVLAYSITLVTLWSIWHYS
Description: Following incubation with the appropriate ligands, the preparations are rapidly filtered under vacuum through GF/B glass fiber filters and washed with ice-cold buffer using a Brandel or Packard cell harvester.
(§1) Specific radioligand binding to the receptor is defined as the difference between total binding and nonspecific binding determined in the presence of an excess of unlabeled ligand. Results are expressed as a percent inhibition of specific binding obtained in the presence of the compounds.

[3] = target: T3, 5-HT4 receptor subtypes derived from guinea-pig striata (Cavia porcellus, UniProt O70528); experiment: 5-HT4 receptor radioligand binding (Cerep); conditions: IC50 for binding to 5-HT4 sites, inhibition of specific radioligand binding
T3 construct: tissue Cerep, Celle l'Evescault, France; host or cells: guinea-pig striata
T3 sequence (O70528 whole entry): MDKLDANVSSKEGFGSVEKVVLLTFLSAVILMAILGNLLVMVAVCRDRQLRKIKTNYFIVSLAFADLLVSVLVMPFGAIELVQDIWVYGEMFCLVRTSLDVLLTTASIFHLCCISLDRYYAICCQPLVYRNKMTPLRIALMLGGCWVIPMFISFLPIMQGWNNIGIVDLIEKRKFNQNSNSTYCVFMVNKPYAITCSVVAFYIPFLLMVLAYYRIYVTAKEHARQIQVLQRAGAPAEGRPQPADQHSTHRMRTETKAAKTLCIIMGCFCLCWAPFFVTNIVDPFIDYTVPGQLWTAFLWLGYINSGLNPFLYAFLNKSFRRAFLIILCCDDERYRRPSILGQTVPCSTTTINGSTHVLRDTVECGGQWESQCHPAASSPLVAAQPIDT
Description: Following incubation with the appropriate ligands, the preparations are raidly filtered under vacuum through GF/B glass fiber filters and washed with ice-cold buffer using a Brandel or Packard cell harvester.
as §1

[4] = cited from earlier work
[5] = co-administration with ketoconazole; cited from earlier work

Compound | IC50 [1] [nM] | IC50 [2] [nM] | IC50 [3] [nM] | Absorption after oral administration ([4]; humans) | Fraction of dose metabolized ([4]; humans, mainly oxidative N-dealkylation or aromatic hydroxylation) | Bioavailability ([4]; oral administration to humans, rapid first-pass metabolism in the liver) | Increase of steady-state plasma levels [5] [fold]
COc1cc(N)c(Cl)cc1C(=O)NC1CCNCC1OC (racemic) [(±) Norcisapride, 4-amino-5-chloro-N-(3-methoxy-4-piperidinyl)-2-methoxybenzamide] | 7480 | 8.2 | 686 | – | – | – | –
COc1cc(N)c(Cl)cc1C(=O)NC1CCN(CCCOc2ccc(F)cc2)CC1OC (racemic) [(±) Cisapride, cis-4-amino-5-chloro-N-[1-[3-(4-fluorophenoxy)propyl]-3-methoxy-4-piperidinyl]-2-methoxybenamide] | – | – | – | almost completely absorbed | More than 90% | 40-50% | 8
COc1cc(N)c(Cl)cc1C(=O)NC1CCNCC1OC (single isomer, unassigned; (-)) [(−) Norcisapride, 4-amino-5-chloro-N-(3-methoxy-4-piperidinyl)-2-methoxybenzamide] | 1300 | 30.4 | 1350 | – | – | – | –
COc1cc(N)c(Cl)cc1C(=O)NC1CCNCC1OC (single isomer, unassigned; (+)) [(+) Norcisapride, 4-amino-5-chloro-N-(3-methoxy-4-piperidinyl)-2-methoxybenzamide] | 5.4 | 4.5 | 331 | – | – | – | –

Source: US6369079B1 (Sepracor, Inc., priority 1998, dated 2002)
